Measured values reported in patent EP4635500A1, “THERAPEUTIC AGENT FOR BACTERIAL INFECTION” (Sumitomo Pharma Co., Ltd., priority 2022, dated 2024).
Converted amounts (≈) assume the structure as drawn. Where two headings read alike, the source gives them in different places.

Assays:
Format in all cases: cell-based
Prevotella spp. = assay: MIC, agar dilution, anaerobic bacteria (Example 9, Tables 18, 23); details: for MIC: (n)=Compound A µg/mL, 0=Compound A alone antibacterial
Porphyromonas spp. = assay: MIC, agar dilution, anaerobic bacteria (Example 9, Tables 19, 24); details: for MIC: (n)=Compound A µg/mL, 0=Compound A alone antibacterial
Gram-positive bacteria = assay: MIC, agar dilution, anaerobic bacteria (Example 9, Tables 21, 26)
[1] = table at the place of Table 24, Prevotella spp.

C[C@@H](O)[C@H]1C(=O)N2C(C(=O)O)=C(S[C@@H]3CN[C@H](C(=O)N(C)C)C3)[C@H](C)[C@H]12 [MEPM, meropenem]
MIC (Prevotella spp.; KUB No. 6579 Prevotella pallens): 0.06 µg/mL (≈ 0.156 µM) | MIC (Prevotella spp.; KUB No. 6581 Prevotella intermedia): 0.06 µg/mL (≈ 0.156 µM) | MIC (Prevotella spp.; KUB No. 6582 Prevotella melaninogenica): 0.06 µg/mL (≈ 0.156 µM) | MIC (Prevotella spp.; KUB No. 6585 Prevotella baroniae): 0.06 µg/mL (≈ 0.156 µM) | MIC (Prevotella spp.; KUB No. 6587 Prevotella melaninogenica): 0.06 µg/mL (≈ 0.156 µM) | MIC (Prevotella spp.; KUB No. 6588 Prevotella nigrescens): ≤ 0.03 µg/mL | MIC (Prevotella spp.; KUB No. 6589 Prevotella buccae): 0.12 µg/mL (≈ 0.313 µM) | MIC (Prevotella spp.; KUB No. 6590 Prevotella buccae): 0.32 µg/mL (≈ 0.834 µM) | MIC (Prevotella spp.; KUB No. 6591 Prevotella intermedia): 0.06 µg/mL (≈ 0.156 µM) | MIC (Prevotella spp.; KUB No. 6592 Prevotella jejuni): 0.06 µg/mL (≈ 0.156 µM) | MIC (Prevotella spp.; KUB No. 6600 Prevotella intermedia): ≤ 0.03 µg/mL | MIC (Prevotella spp.; KUB No. 6601 Prevotella melaninogenica): 0.12 µg/mL (≈ 0.313 µM) | MIC (Prevotella spp.; KUB No. 6603 Prevotella melaninogenica): 0.12 µg/mL (≈ 0.313 µM) | MIC (Prevotella spp.; KUB No. 6609 Prevotella buccae): 0.12 µg/mL (≈ 0.313 µM) | MIC (Prevotella spp.; KUB No. 6611 Prevotella nigrescens): 0.06 µg/mL (≈ 0.156 µM) | MIC (Prevotella spp.; KUB No. 6612 Prevotella oris): 0.25 µg/mL (≈ 0.652 µM) | MIC (Prevotella spp.; KUB No. 6613 Prevotella buccae): 0.12 µg/mL (≈ 0.313 µM) | MIC (Prevotella spp.; KUB No. 6614 Prevotella intermedia): ≤ 0.03 µg/mL | MIC (Prevotella spp.; KUB No. 6615 Prevotella buccae): 0.06 µg/mL (≈ 0.156 µM) | MIC (Prevotella spp.; KUB No. 6617 Prevotella buccae): 0.06 µg/mL (≈ 0.156 µM) | MIC (Prevotella spp.; KUB No. 6618 Prevotella melaninogenica): 0.06 µg/mL (≈ 0.156 µM) | MIC (Prevotella spp.; KUB No. 6622 Prevotella loescheii): 0.06 µg/mL (≈ 0.156 µM) | MIC (Prevotella spp.; KUB No. 6623 Prevotella nigrescens): ≤ 0.03 µg/mL | MIC (Prevotella spp.; KUB No. 6625 Prevotella melaninogenica): ≤ 0.03 µg/mL | MIC (Prevotella spp.; KUB No. 6626 Prevotella loescheii): ≤ 0.03 µg/mL | MIC (Prevotella spp.; KUB No. 6629 Prevotella bivia): 0.06 µg/mL (≈ 0.156 µM) | MIC (Prevotella spp.; KUB No. 6630 Prevotella nigrescens): ≤ 0.03 µg/mL | MIC (Prevotella spp.; KUB No. 6631 Prevotella jejuni): 0.06 µg/mL (≈ 0.156 µM) | MIC50 (Prevotella spp.; Prevotella spp.): 0.06 µg/mL (≈ 0.156 µM) | MIC90 (Prevotella spp.; Prevotella spp.): 0.12 µg/mL (≈ 0.313 µM) | MICrange (Prevotella spp.; Prevotella spp.): ≤0.03 to 0.5 µg/mL | MIC (Prevotella spp.; Prevotella, KUB No. 6583 Prevotella nonceiensis): 0.12 µg/mL (≈ 0.313 µM) | MIC (Prevotella spp.; Prevotella, KUB No. 6604 Prevotella nonceiensis): 0.25 µg/mL (≈ 0.652 µM) | MIC50 (Prevotella spp.; Prevotella, n=54, combination: Compound A at 4 ug/mL, read-out: MIC50): 0.06 µg/mL | MIC90 (Prevotella spp.; Prevotella, n=54, combination: Compound A at 4 ug/mL, read-out: MIC90): 0.12 µg/mL | MIC (Prevotella spp.; po, KUB No. 6566 Prevotella oralis): ≤ 0.03 µg/mL | MIC (Porphyromonas spp.; KUB No. 6663 Porphyromonas gingivalis): ≤ 0.03 µg/mL | MIC (Porphyromonas spp.; KUB No. 6666 Porphyromonas gingivalis): ≤ 0.03 µg/mL | MIC (Porphyromonas spp.; KUB No. 6667 Porphyromonas gingivalis): ≤ 0.03 µg/mL | MIC (Porphyromonas spp.; KUB No. 6668 Porphyromonas gingivalis): ≤ 0.03 µg/mL | MIC (Porphyromonas spp.; KUB No. 6669 Porphyromonas gingivalis): ≤ 0.03 µg/mL | MIC (Porphyromonas spp.; KUB No. 6670 Porphyromonas gingivalis): ≤ 0.03 µg/mL | MIC (Porphyromonas spp.; KUB No. 6671 Porphyromonas gingivalis): ≤ 0.03 µg/mL | MIC (Porphyromonas spp.; KUB No. 6672 Porphyromonas gingivalis): ≤ 0.03 µg/mL | MIC (Porphyromonas spp.; KUB No. 6673 Porphyromonas gingivalis): ≤ 0.03 µg/mL | MIC (Porphyromonas spp.; KUB No. 6674 Porphyromonas gingivalis): ≤ 0.03 µg/mL | MIC (Porphyromonas spp.; KUB No. 6676 Porphyromonas gingivalis): ≤ 0.03 µg/mL | MIC (Porphyromonas spp.; KUB No. 6677 Porphyromonas gingivalis): ≤ 0.03 µg/mL | MIC (Porphyromonas spp.; KUB No. 6678 Porphyromonas gingivalis): ≤ 0.03 µg/mL | MIC (Porphyromonas spp.; KUB No. 6679 Porphyromonas gingivalis): ≤ 0.03 µg/mL | MIC (Porphyromonas spp.; KUB No. 6680 Porphyromonas gingivalis): ≤ 0.03 µg/mL | MIC (Porphyromonas spp.; KUB No. 6681 Porphyromonas gingivalis): ≤ 0.03 µg/mL | MIC (Porphyromonas spp.; KUB No. 6682 Porphyromonas gingivalis): ≤ 0.03 µg/mL | MIC (Porphyromonas spp.; KUB No. 6683 Porphyromonas gingivalis): ≤ 0.03 µg/mL | MIC (Porphyromonas spp.; KUB No. 6684 Porphyromonas gingivalis): ≤ 0.03 µg/mL | MIC (Porphyromonas spp.; KUB No. 6685 Porphyromonas gingivalis): ≤ 0.03 µg/mL | MIC (Porphyromonas spp.; KUB No. 6686 Porphyromonas gingivalis): ≤ 0.03 µg/mL | MIC (Porphyromonas spp.; KUB No. 6687 Porphyromonas gingivalis): ≤ 0.03 µg/mL | MIC (Porphyromonas spp.; KUB No. 6688 Porphyromonas gingivalis): 0.03 µg/mL (≈ 0.0782 µM) | MIC (Porphyromonas spp.; Porphyromonas, KUB No. 6665 Porphyromonas assaccharolytica): ≤ 0.03 µg/mL | MIC50 (Porphyromonas spp.; Porphyromonas, n=26, combination: Compound A at 4 ug/mL, read-out: MIC50): ≤ 0.03 µg/mL | MIC90 (Porphyromonas spp.; Porphyromonas, n=26, combination: Compound A at 4 ug/mL, read-out: MIC90): ≤ 0.03 µg/mL | MIC50 (Porphyromonas spp.; [1]): ≤0.03 µg/mL | MIC90 (Porphyromonas spp.; [1]): ≤0.03 µg/mL | MICrange (Porphyromonas spp.; [1]): ≤0.03 µg/mL | MIC50 (Gram-positive bacteria): 0.06 µg/mL (≈ 0.156 µM) | MIC90 (Gram-positive bacteria): 2 µg/mL (≈ 5.22 µM) | MIC (Gram-positive bacteria; ATCC43255, KUB No. 3518 Clostridioides difficile ATCC 43255, read-out: MIC): 2 µg/mL (≈ 5.22 µM) | MIC (Gram-positive bacteria; ATCC700057, KUB No. 2978 Clostridioides difficile ATCC 700057, read-out: MIC): 2 µg/mL (≈ 5.22 µM) | MIC (Gram-positive bacteria; ATCCBAA1803, KUB No. 3511 Clostridioides difficile ATCC BAA-1803, read-out: MIC): 4 µg/mL (≈ 10.4 µM) | MIC (Gram-positive bacteria; ATCCBAA1870, KUB No. 3385 Clostridioides difficile ATCC BAA-1870, read-out: MIC): 4 µg/mL (≈ 10.4 µM) | MIC (Gram-positive bacteria; Cutibacterium acnes, ATCC11827): ≤ 0.03 µg/mL | MIC (Gram-positive bacteria; Eggerthella lenta, ATCC43055): 0.5 µg/mL (≈ 1.3 µM) | MIC (Gram-positive bacteria; Finegoldia magna, ATCC29328): 0.06 µg/mL (≈ 0.156 µM) | MICrange (Gram-positive bacteria; Gram-positive bacteria): ≤0.03 to 4 µg/mL | MIC50 (Gram-positive bacteria; Gram-positive bacteria, read-out: MIC50): 0.06 µg/mL (≈ 0.156 µM) | MIC90 (Gram-positive bacteria; Gram-positive bacteria, read-out: MIC90): 2 µg/mL (≈ 5.22 µM) | MIC (Gram-positive bacteria; KUB No. 3013 Bulleidia extructa, read-out: MIC): 0.12 µg/mL (≈ 0.313 µM) | MIC (Gram-positive bacteria; KUB No. 3014 Atropobium rimae, read-out: MIC): 0.06 µg/mL (≈ 0.156 µM) | MIC (Gram-positive bacteria; Olsenella uli): ≤ 0.03 µg/mL | MIC (Gram-positive bacteria; Peptoniphilus asaccharolyticus, ATCC14963): ≤ 0.03 µg/mL | MIC (Gram-positive bacteria; Peptoniphilus indolicus): ≤ 0.03 µg/mL | MIC (Gram-positive bacteria; Peptostreptococcus anaerobius): 2 µg/mL (≈ 5.22 µM) | MIC (Gram-positive bacteria; Schaalia odontolytica, ATCC17929, KUB No. 3488 Actinomyces odontolyticus ATCC 17929, read-out: MIC): 0.12 µg/mL (≈ 0.313 µM)
